According to publication PMC7280531, “A PROTAC peptide induces durable β-catenin degradation and suppresses Wnt-dependent intestinal cancer” (Cell Discovery, 2020):
Where a SMILES comes first, the peptide text is derived from it. Bridges are numbered along the chain shown (N, C = ends). [ ]: non-standard residue; d: D form. S5 = C=CCCC[C@](C)(N)C(=O)O; Ahx = NCCCCCC(=O)O

Experiments:
[1] = test system: Axin2 expression; test: Axin2^LacZ Wnt reporter mice, β-galactosidase staining of small intestine; type: in vivo; conditions: i.p. injection, 7 doses/14 days
Description: The small intestines were isolated from Axin2^LacZ reporter mice, washed with PBS and fixed in 4 % paraformaldehyde for 1 h at room temperature, then cut into small pieces (1 cm). The tissue pieces were stained with in situ β-galactosidase staining kit (Beyotime) according to the manufacturer’s instruction. The stained tissues were transferred to tissue cassettes and paraffin blocks prepared using standard methods. The tissues were sliced into 5 μm thick sections with paraffin slicing machine (RM2235, Leica) and subjected to hematoxylin staining.

[2] = test system: SW480 cells; test: Cell permeability of FITC-labeled peptides in SW480 cells (confocal microscopy); type: cell-based
Description: After elongation of the peptide and metathesis reaction were conducted on the resin according to a general protocol. Then, the Fmoc group was removed and the resin was treated with Fmoc-Ahx-OH (4 eq.), DIC (4 eq.), Oxyma pure (4 eq.) and NMP (6 mL) for 15 min at 60 °C. The Fmoc group was removed and the resin was treated with fluorescein isothiocyanate (FITC, 2 eq.) and DIPEA (2 eq.) in DMF (6 mL) at room temperature overnight. The biotinylated labeling was carried out as routine amino acid. Cleavage was conducted following a general protocol and crude peptide was purified by RP- HPLC to give the final products.
Supplementary Fig. S3. Cell permeability of FITC-labeled peptides in SW480 […]
(a) The uptake of FITC-labeled peptides into SW480 was examined after incubation for 6 h by confocal microscopy. The nuclei were counter-stained with DAPI. Scale bar = 100 μm. (b) FITC-xStAx and FITC-xStAx-VHLL were added to SW480 cells for 6 h, and then washed out with the growth medium. After 24 h and 48 h, the cells were counter-stained with DAPI and examined by confocal microscopy. Scale bar = 100 […]
(1 picture or pasted object on this page, not shown here)

[3] = test system: APC^−/− organoids; test: APC^−/− mouse intestinal organoid culture; type: cell-based
[4] = test system: Wnt/β-catenin signaling; test: Topflash luciferase reporter assay in HEK293T cells; type: cell-based; conditions: Wnt3a CM, 24 h
Description: Dual luciferase reporter assay system (Promega) was used. HEK293T cells, cultured in 24-well plates, were transfected with 200 ng Topflash plasmid and 30 ng Renilla plasmid for 3-well cells. […] Then harvested the cells for luciferase activity measurement.

[5] = target: T1, β-catenin (Homo sapiens, UniProt P35222); test: β-catenin immunoblotting / immunoprecipitation in HEK293T cells
T1 sequence (P35222 1-781): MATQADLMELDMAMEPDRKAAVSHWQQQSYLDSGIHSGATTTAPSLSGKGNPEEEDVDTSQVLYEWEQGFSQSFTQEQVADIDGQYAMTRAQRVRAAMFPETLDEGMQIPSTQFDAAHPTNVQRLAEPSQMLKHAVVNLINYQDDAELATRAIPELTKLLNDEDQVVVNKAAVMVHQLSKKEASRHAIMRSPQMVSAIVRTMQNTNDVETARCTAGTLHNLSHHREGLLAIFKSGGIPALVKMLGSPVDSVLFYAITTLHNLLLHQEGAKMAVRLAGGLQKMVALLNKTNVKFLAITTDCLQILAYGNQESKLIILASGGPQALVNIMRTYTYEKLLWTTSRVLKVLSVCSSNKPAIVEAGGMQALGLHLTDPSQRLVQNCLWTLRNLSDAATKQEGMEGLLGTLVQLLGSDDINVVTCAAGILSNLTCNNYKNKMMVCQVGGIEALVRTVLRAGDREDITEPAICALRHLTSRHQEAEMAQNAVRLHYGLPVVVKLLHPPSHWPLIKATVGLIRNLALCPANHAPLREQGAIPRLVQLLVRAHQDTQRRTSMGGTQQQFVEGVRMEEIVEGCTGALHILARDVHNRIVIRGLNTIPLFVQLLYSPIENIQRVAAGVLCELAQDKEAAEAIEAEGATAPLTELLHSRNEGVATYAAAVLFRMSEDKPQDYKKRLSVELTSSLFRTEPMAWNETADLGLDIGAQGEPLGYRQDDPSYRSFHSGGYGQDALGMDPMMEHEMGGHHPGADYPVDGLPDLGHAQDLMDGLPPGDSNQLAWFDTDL
Description: The relative band intensity was quantified with ImageJ and normalized to GAPDH.
For immunoprecipitation, the cells were lysed in TNE lysis buffer (50 mM Tris-HCl, pH 8.0, 150 mM NaCl, 1% Nonidet P-40, and protease inhibitor cocktail). […] After 18,000×g centrifugation for 10 min, the lysates were immunoprecipitated with specific antibody and protein A-Sepharose beads and then washed the beads with TNE buffer for three times before immunoblotting.

[6] = test system: intestinal tumors; test: Intestinal tumors in APC^min/+ mice
Description: Because APC^min/+ mice can develop intestinal tumors around 10 weeks-old[26], the 11 weeks-old APC^min/+ mice were intraperitoneally injected with 30 mg/kg vehicle DMSO or peptides at every other day for 14 days. Then the mice were sacrificed for analysis of intestinal tumors.
Tumor number of the whole intestinal tract was analyzed in the lower panel.

[7] = 50 μM peptides, 24 h, immunoblot

## CC[C@H](C)[C@@H]1NC(=O)[C@@](C)(NC(=O)[C@H](CCCNC(=N)N)NC(=O)[C@@H]2CCCN2C(=O)[C@H](Cc2c[nH]c3ccccc23)NC(=O)[C@H](CCCNC(=N)N)NC(=O)[C@H](CCCNC(=N)N)NC(C)=O)CCCC=CCCC[C@@](C)(C(=O)N[C@@H](Cc2c[nH]cn2)C(=O)N[C@H](C(=O)N[C@@H](CCCNC(=N)N)C(=O)N[C@@H](CCCNC(=N)N)C(=O)N[C@H](C(=O)N[C@@H](Cc2c[nH]c3ccccc23)C(=O)N[C@@H](CCCNC(=N)N)C(=O)NCCCCCC(=O)N[C@@H](C)C(=O)N[C@@H](CC(C)C)C(=O)N[C@@H](C)C(=O)N2CCC[C@H]2C(=O)N[C@@H](Cc2ccc(O)cc2)C(=O)N[C@H](C(=O)N2CCC[C@H]2C(N)=O)[C@@H](C)CC)C(C)C)C(C)C)NC(=O)[C@H](CC(=O)O)NC(=O)[C@H](CC(C)C)NC1=O [xStAx-VHLL] (Ac-RRWPR[S5]ILD[S5]HVRRVWR[Ahx]ALAPYIP-NH2; staple 6-10; N-terminus and C-terminus assumed)
[1]
  Axin2 expression (β-galactosidase staining): significantly blocked Axin2 expression
[2]; 6 h, washed out with growth medium, examined after 24 h and 48 h
  retention in the cell after wash-out: retained in the cell much longer
[2]; 6 h incubation
  membrane permeability / uptake into cells: could efficiently enter into a cell
[3]; 10 μM MSAB or 50 μM xStAx-VHLL, 4 days
  APC^−/− organoid survival, MSAB versus xStAx-VHLL: strong inhibition
[3]; 50 μM peptide, 4 days
  growth of APC^−/− organoids: significantly impeded the growth
[3]; [7]
  cleaved caspase 3: increased
  β-catenin protein level: greatly decreased
[3]; qPCR
  expression of Wnt target genes Axin2, Cyclin D1 and Myc: downregulated
[4]; 70 μM xStAx-VHLL vs 10 μM XAV939, 20 μM PRI-724, 100 μM PNU-74654, 10 μM MSAB
  inhibition of Wnt-induced Topflash-luciferase compared with small-molecule inhibitors: comparable inhibition
[4]; indicated concentrations
  dose dependence of effect on Wnt signaling (Topflash): dose-dependent effect on Wnt signaling
[4]; peptides 70 μM each
  Wnt3a-induced expression of the Topflash-luciferase reporter: more potent in decreasing the Wnt3a-induced expression of the reporter
[5]; 10 μM MSAB, 50 μM xStAx-VHLL (legend: 70 μM, Wnt3a CM), 24 h
  β-catenin protein level, MSAB versus xStAx-VHLL: decreased β-catenin protein to a comparable level
[5]; 50 μM peptide 24 h, MG132 10 μM 12 h, IP and immunoblot
  β-catenin ubiquitination: promoted β-catenin ubiquitination
[5]; 70 μM peptide and Wnt3a CM, immunoblot time course
  time post treatment at which β-catenin degradation started: 12 h
[5]; 70 μM peptide, 24 h, without Wnt3a, immunoblot
  endogenous β-catenin protein level: reduced the β-catenin level
[5]; 70 μM peptide, Wnt3a CM, 24 h, immunoblot, lower than xStAx
  β-catenin protein level in Wnt3a-treated cells: significantly downregulated β-catenin protein level
[5]; MSAB 10 μM or xStAx-VHLL 70 μM 24 h, then fresh medium 24 or 48 h
  β-catenin level after wash-out of the drug: durable degradation of β-catenin
[6]; 30 mg/kg i.p. 7 times, immunoblot, compared with the vehicle group
  active β-catenin protein level in small intestine: also decreased
[6]; 11 weeks-old mice, 30 mg/kg i.p. every other day for 14 days (7 times), vs day 0 or DMSO
  intestinal tumor number: dramatically reduced tumor number
